Test results: publication PMC9912809 (Inorganic chemistry, 2022)
Where two headings read alike, the source gives them in different places.

How the values were obtained:
[1] = target: T1, Recombinant human glyoxalase I (GLO1) (Homo sapiens, UniProt Q04760); experiment: GLO1 inhibition assay; format: biochemical
T1 sequence (Q04760 2-184 limits assumed): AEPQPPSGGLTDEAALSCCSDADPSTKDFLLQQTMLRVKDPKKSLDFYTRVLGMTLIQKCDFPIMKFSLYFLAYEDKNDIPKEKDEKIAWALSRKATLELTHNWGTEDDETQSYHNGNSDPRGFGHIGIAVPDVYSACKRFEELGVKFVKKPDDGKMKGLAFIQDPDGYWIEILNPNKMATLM

[2] = target: Human recombinant MMP-2 catalytic domain (Homo sapiens, UniProt P08253); experiment: MMP-2 fluorogenic substrate inhibition assay; details: for Percent inhibition MMP-2: SD of triplicate in parentheses
Chain of Human recombinant MMP-2 catalytic domain (P08253 110-452 limits assumed): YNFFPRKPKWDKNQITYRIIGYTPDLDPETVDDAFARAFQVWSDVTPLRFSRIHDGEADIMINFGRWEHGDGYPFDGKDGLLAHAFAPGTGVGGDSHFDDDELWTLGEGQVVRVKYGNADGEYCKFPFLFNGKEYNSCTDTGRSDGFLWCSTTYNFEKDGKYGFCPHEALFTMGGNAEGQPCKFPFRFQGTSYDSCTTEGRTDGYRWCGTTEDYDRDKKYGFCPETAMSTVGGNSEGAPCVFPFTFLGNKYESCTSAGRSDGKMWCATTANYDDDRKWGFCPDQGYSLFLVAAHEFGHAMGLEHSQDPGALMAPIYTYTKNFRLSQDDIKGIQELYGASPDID

[3] = logP by potentiometric octanol/water titration; format: physicochemical
[4] = target: Human carbonic anhydrase II (hCAII) (Homo sapiens, UniProt P00918); experiment: hCAII inhibition assay; format: biochemical
GLO1 = target: T2, GLO1 (Homo sapiens, UniProt Q04760); experiment: Thermal shift assay; format: binding; details: thermal shift assay (Table S7)
T2 sequence (Q04760 2-184 limits assumed): T1 sequence (Q04760 2-184 limits assumed)

[5] = pKa determination with SiriusT3; format: physicochemical; details: SiriusT3, range pH 2.0 – 12.0, 0.15 M KCl
[6] = 200 μM, SD of triplicate in parentheses

Oc1ccc2ncccc2c1 [Compound 32]
Reduction of GLO1 inhibition activity compared to 8-HQ ([1]; 200 μM): > 50% | Percent inhibition GLO1 [1, 6]: <5% | Reduction of MMP-2 inhibition activity compared to 8-HQ ([2]; 200 μM): > 50% | Percent inhibition MMP-2 ([2]; 200 μM): 26 (7) %

COc1ccc(S(=O)(=O)N(CC(=O)NO)CC(C)C)cc1 [NNGH, reference compound]
Inhibition of MMP-2 by positive control ([2]; 50 μM final concentration): complete inhibition

COCCCn1ccc2cc(-c3cc(-c4ccccc4)cc(=O)n3O)cnc21 [Chugai-3d, reference compound]
Inhibition of GLO1 by positive control ([1]; 50 μM final concentration): complete inhibition

Oc1cccc2cccnc12 [8-HQ, 8-Hydroxyquinoline, reference compound]
logP ([3]; octanol/water): 1.86 | logD ([3]; octanol/water, pH 7.4): 1.85 | inhibition at 200 µM ([1]; read-out: Percent inhibition GLO1): 95% | inhibition at 200 µM ([4]; read-out: Percent inhibition hCAII): < 5% | ΔTM of MBI-bound GLO1 vs native, unbound GLO1 (GLO1): > 3 °C | IC50 [2]: 166 µM | inhibition at 200 µM ([2]; read-out: Percent inhibition MMP-2): 57%

CS(=O)(=O)Nc1cccc2cccnc12 [MBI 18]
Measured pKa1 (conjugated acid, protonated nitrogen of heteroaromatic ring) [5]: 3.17 | Measured pKa2 (hydroxyl group or its isosteric replacement) [5]: 8.97 | Measured logD7.4 ([3]; derived from measured pKa and logP, pH 7.4): 0.99 | Measured logP ([3]; octanol/water, potentiometric, SiriusT3): 1.01 | Percent inhibition hCAII [4, 6]: <5% | Percent inhibition MMP-2 ([2]; 200 μM): 59 (2) % | IC50 ([2]; read-out: IC50 MMP-2, dose-response 10 μM to 1000 or 1500 μM (Figure S2)): 154 ± 9.8 µM
